According to patent US20260199365A1, “BIS-SULFONAMIDE SHIP1 ACTIVATORS” (The Research Foundation for the State University of New York, priority 2022, published 2026):
“Also recorded” adds a separate entry of the source.

Target: T1, recombinant human truncated SHIP1 (tSHIP1) (Homo sapiens, UniProt Q92835)
T1 construct: tSHIP1 (SHIP1, residues 397-864) was amplified from pET24TEV-tSHIP1; His tag; made in house; host or cells: E. coli BL21
T1 sequence (Q92835 397-864): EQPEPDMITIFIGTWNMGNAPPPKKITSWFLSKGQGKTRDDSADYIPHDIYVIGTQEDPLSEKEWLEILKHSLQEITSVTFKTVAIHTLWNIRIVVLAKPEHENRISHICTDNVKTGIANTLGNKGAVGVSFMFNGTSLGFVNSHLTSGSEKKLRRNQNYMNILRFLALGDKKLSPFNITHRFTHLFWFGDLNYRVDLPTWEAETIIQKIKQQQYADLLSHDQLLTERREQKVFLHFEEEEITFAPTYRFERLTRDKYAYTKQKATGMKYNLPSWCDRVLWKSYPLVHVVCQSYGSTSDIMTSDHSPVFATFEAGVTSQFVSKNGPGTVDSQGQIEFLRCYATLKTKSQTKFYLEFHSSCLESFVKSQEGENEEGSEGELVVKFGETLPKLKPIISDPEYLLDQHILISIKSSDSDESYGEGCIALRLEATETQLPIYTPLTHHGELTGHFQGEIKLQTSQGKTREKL
Experiment: Malachite Green Phosphatase Release Assay (SHIP1 phosphatase activity)
Type: biochemical
Details: for Malachite (SHIP1), 125 μM / Malachite (SHIP1), 250 μM / Malachite (SHIP1), 500 μM: bis-sulfonamide hybrids; for Phosphatase activity in the Malachite Green Assay, analog concentration 125 μM: 125 μM analog; for Phosphatase activity in the Malachite Green Assay, analog concentration 125 μM / Phosphatase activity in the Malachite Green Assay, analog concentration 250 μM / Phosphatase activity in the Malachite Green Assay, analog concentration 500 μM: 100 μM PI(3,4,5)P3-diC8 substrate, normalized to vehicle control (DMSO) = 100%; for Phosphatase activity in the Malachite Green Assay, analog concentration 250 μM: 250 μM analog; for Phosphatase activity in the Malachite Green Assay, analog concentration 500 μM: 500 μM analog, >100% activation, <100% inhibition; for SHIP1 activator activity in the malachite green assay: discussion of Table 4 (125-500 μM)
Protocol: ^aPhosphatase activity for SHIP1 and SHIP2 enzyme as determined in the malachite green assay. Results were normalized to the phosphatase activity level from vehicle control (DMSO) used as 100% activity. Values >100% are attributed to activation, while values <100% show inhibition of the enzyme compared to the control. The assay was performed at the indicated concentration of the small molecule with 100 μM PI(3,4,5)P3-diC8 as the substrate. ^bnd=not determined, compound 23 was insoluble.
Cloning and expression of tSHIP1 of truncated human SHIP1 protein (tSHIP1) from human whole blood mRNA have been previously described (see Brooks R, Iyer, S., Akada, H., Neelam, S., Russo, C. M., Chisholm, J. D., and Kerr W. G. Coordinate Expansion of Murine Hematopoietic and Mesenchymal Stem Cell Compartments by SHIPi Stem Cells 2015; 33:848). Briefly, tSHIP1 (SHIP1, residues 397-864) was amplified from pET24TEV-tSHIP1. Plasmids were extracted with Midi Prep (Qiagen) and sequences were verified by sequencing of the entire expression regions. The plasmids were then transformed into E. coli BL21 (New England Biolabs). Fresh colonies were amplified in 1 L LB at 37° C., shaking at 250 rpm until OD600 nm reached 0.6. Protein expression was induced with […] IPTG and incubation was continued at 16° C., shaking at 250 rpm for 16 h. Following centrifugation, bacteria pellets were stored overnight at −20° C. Protein was extracted form bacterial cell pellet using BugBuster HT (Millipore), according to manufacturer's recommendations. The His-tagged protein was purified by FPLC using HisTrapHP 5 ml column (Cytiva Life Sciences) at a 5 ml/min flow rate and 10 mM-1M imidazole gradient in Buffer A (20 mM Tris pH 8.0, 300 mM NaCl, 10 mM imidazole, 5 mM β-mercaptoethanol). Fractions containing active protein by Malachite Green Phosphatase Release Assay (Echelon, see below) were pooled, concentrated and buffer exchanged to reduce imidazole concentration by centrifugation using Pierce Protein Concentrators 30KMWCO PES, (ThermoFisher Scientific). Protein was aliquoted and stored at −80° C. in a mixture of Buffer A (without β-ME) and 50% glycerol.
Malachite Green Phosphatase Release Assays: Malachite Green Phosphatase Release Assays (Echelon Biosciences) were performed with recombinant human truncated SHIP1 (tSHIP1) (Brooks, 2015) and SHIP2 (Echelon Biosciences). Briefly, serial dilutions of the compounds dissolved in DMSO were added to the recombinant enzymes diluted in reaction buffer Rx (50 mM Hepes pH 7.4, 150 mM NaCl, 1 mM MgCl2, 0.25 mM EDTA) in triplicate reactions in 96-well plates. Reactions were incubated for 2 min at room temperature. […] of 1 mM Phosphatidylinositol 3,4,5-trisphosphate diC8 (PI(3,4,5)P3diC8) (Echelon Biosciences) was added to each reaction to a final concentration of 100 μM in a final volume of […]. Following 20 min incubation at 37° C., 100 μL of Malachite Green Solution (Echelon Biosciences) was added to each well and plates were incubated at room temperature in the dark for 15 min. Plates were then read at 620 nm on a plate reader (Synergy 2, BioTek).

| Malachite (SHIP1), 125 μM [%] | Malachite (SHIP1), 250 μM [%] | Malachite (SHIP1), 500 μM [%] | Phosphatase activity in the Malachite Green Assay, analog concentration 125 μM [%] | Phosphatase activity in the Malachite Green Assay, analog concentration 250 μM [%] | Phosphatase activity in the Malachite Green Assay, analog concentration 500 μM [%] | SHIP1 activator activity in the malachite green assay | SMILES | SHIP1 activator activity in the malachite green assay (listed as 22) |
| --- | --- | --- | --- | --- | --- | --- | --- | --- |
| 80 | 88 | 116 |  |  |  |  | O=C(CNS(=O)(=O)c1ccccc1C(F)(F)F)Nc1ccc(S(=O)(=O)N2CCCCC2)cc1 [Compound K427] |  |
|  |  |  | 93 | 102 | 105 | loss of potency | Cc1sc(S(=O)(=O)N2CCSCC2)cc1NC(=O)CNC(=O)OCc1ccccc1 [Compound K373, Benzyl N-({[2-methyl-5-(thiomorpholine-4-sulfonyl)thiophen-3-yl]carbamoyl}methyl) carbamate] |  |
| 96 | 122 | 158 |  |  |  |  | Cc1sc(S(=O)(=O)N2CCCCC2)cc1NC(=O)[C@@H]1CCCN1S(=O)(=O)c1ccccc1C(F)(F)F [Compound K421] |  |
|  |  |  | 117 | 133 | 163 | quite active | Cc1sc(S(=O)(=O)N2CCSCC2)cc1NC(=O)CNS(=O)(=O)c1ccccc1[N+](=O)[O-] [Compound K391, N-[2-Methyl-5-(thiomorpholine-4-sulfonyl)thiophen-3-yl]-2-(2-nitrobenzenesulfonamido) acetamide] |  |
|  |  |  | 104 | 106 | 107 | loss of bioactivity | Cc1sc(S(=O)(=O)N2CCSCC2)cc1NC(=O)CNS(=O)(=O)c1ccccc1 [Compound K376, 2-Benzenesulfonamido-N-[2-methyl-5-(thiomorpholine-4-sulfonyl)thiophen-3-yl]acetamide] |  |
| 99 | 112 | 138 |  |  |  |  | O=C(Nc1ccc(S(=O)(=O)N2CCCCC2)cc1)[C@@H]1CCCN1S(=O)(=O)c1ccccc1C(F)(F)F [Compound K420] |  |
|  |  |  | 71 | 74 | 130 |  | Cc1sc(S(=O)(=O)N2CCSCC2)cc1NC(=O)[C@H](Cc1ccccc1)NS(=O)(=O)c1ccc(F)cc1 [Compound K396, (2S)-2-(4-Fluorobenzenesulfonamido)-N-[2-methyl-5-(thiomorpholine-4-sulfonyl)thiophen-3-yl]-3-phenylpropanamide] |  |
|  |  |  | 89 | 118 | 132 |  | Cc1sc(S(=O)(=O)N2CCSCC2)cc1NC(=O)[C@H](C)NS(=O)(=O)c1ccc(F)cc1 [Compound K389, (2S)-2-(4-Fluorobenzenesulfonamido)-N-[2-methyl-5-(thiomorpholine-4-sulfonyl)thiophen-3-yl]propanamide] |  |
|  |  |  | 108 | 115 | 150 | increase in the activity | Cc1sc(S(=O)(=O)N2CCSCC2)cc1NC(=O)CNS(=O)(=O)c1ccc([N+](=O)[O-])cc1 [Compound K375, N-[2-methyl-5-(thiomorpholine-4-sulfonyl)thiophen-3-yl]-2-(4-nitrobenzenesulfonamido) acetamide] |  |
|  |  |  | 98 | 89 | 80 |  | Cc1sc(S(=O)(=O)N2CC[S+]([O-])CC2)cc1NC(=O)CNS(=O)(=O)c1ccc(F)cc1 [Compound K377] | no activity as a SHIP activator; also recorded: some inhibition of SHIP1 |
|  |  |  | 103 | 104 | 107 | reduced effect on SHIP activation | Cc1sc(S(=O)(=O)N2CCSCC2)cc1NC(=O)CN [Compound K378, 2-Aminotrifluoroacetate-N-[2-methyl-5-(thiomorpholine-4-sulfonyl)thiophene-3-yl]acetamide] |  |
|  |  |  |  | 108 | 116 |  | Cc1sc(S(=O)(=O)N2CCSCC2)cc1NC(=O)[C@@H](C)NS(=O)(=O)c1ccc(F)cc1 [Compound K386, (2R)-2-(4-Fluorobenzenesulfonamido)-N-[2-methyl-5-(thiomorpholine-4-sulfonyl)thiophen-3-yl]propanamide] |  |
|  |  |  | 100 | 97 | 94 |  | Cc1sc(S(=O)(=O)N(C)C)cc1NC(=O)CNS(=O)(=O)c1ccc(F)cc1 [Compound K388, N-[5-(Dimethylsulfamoyl)-2-methylthiophen-3-yl]-2-(4-fluorobenzenesulfonamido) acetamide] |  |
|  |  |  |  | 93 | 94 | loss of activity | Cc1sc(S(=O)(=O)N2CCOCC2)cc1NC(=O)CNS(=O)(=O)c1ccc(F)cc1 [Compound K367, 2-(4-Fluorobenzenesulfonamido)-N-[2-methyl-5-(morpholine-4-sulfonyl)thiophen-3-yl]acetamide] |  |
|  |  |  |  | 102 | 106 | disappointing | Cc1sc(S(=O)(=O)N2CCSCC2)cc1NC(=O)CNS(=O)(=O)c1cccc([N+](=O)[O-])c1 [Compound K392, N-[2-methyl-5-(thiomorpholine-4-sulfonyl)thiophen-3-yl]-2-(3-nitrobenzenesulfonamido) acetamide] |  |
| 79 | 84 | 91 |  |  |  |  | CCCCNS(=O)(=O)c1ccc(NC(=O)[C@@H]2CCCN2S(=O)(=O)c2ccccc2C(F)(F)F)cc1 [Compound K424] |  |
| 75 | 80 | 81 |  |  |  |  | CCCCNS(=O)(=O)c1ccc(NC(=O)[C@@H]2CCCN2S(=O)(=O)c2ccc(C(F)(F)F)cc2)cc1 [Compound K425] |  |
